Laboratory results: patent US5750552A, “Imidazoline derivative, possible tautomer thereof, and vulnerary including such derivative or tautomer” (Arax Co., Ltd., priority 1995, dated 1998)

Key:
wound in rat = experiment: Healing effect on wound in rat; assay type: in vivo, SD rats; conditions: TABLE 7, 15 days; for Healing days: control 15.1 ± 0.22; for Healing Index: control 188.3 ± 18.2
Experimental: Healing Effect on wound in rat
Male 7-week SD rats were classified into groups each consisting of 6-7 rats, such that all the groups have substantially the same average weight. The experiment was performed on the rats according to a method of Tsurumi et al. (Oyo Yakuri, Vol. 7, pp833, 1973). Initially, the rats were subjected to an anesthesia with pentobarbital. The hair of the back of each rat was clipped, and the skin was disinfected with 70% ethanol. Then, the skin was lightly pulled and punched off in a direction from the right to the left by means of a punch whose diameter is 10 mm, so as to form two open wounds on portions of the back of the rat which are symmetrical to each other with respect to the center line of the back. The compounds of Examples indicated in the following TABLES 7 and 8 were used as specimen drugs, and orally administered once a day to each of the rats with doses indicated in the TABLES 7 and 8. The oral administration continued for 15 consecutive days, beginning from the first day when the wounds were formed on the back of each rat.
To clarify the healing effect on the wounds, an Healing Index and healing days were obtained in the following manner. Initially, the lengths of a major axis and a minor axis of each wound formed on the back were measured using calipers. On the basis of the measured length values, the area of each wound was calculated as the area of an ellipse. The Healing Index was obtained according to a method of Nakano et al. (Oyo Yakuri, Vol. 47, pp29, 1994). Described more specifically, a ratio of area of each wound was chronologically represented in a graph, and an area of the lower part of a curve in the graph during a period from the fifth day to the fifteenth day after the wounds were formed was obtained as the Healing Index. […] The healing days were obtained as the number of the days that were required for the wounds to be completely covered with regenerated epidermises. As for the wound that was healed in more than 15 days, the healing days were obtained as 16 days.

[1] = test system: indomethacin-induced gastric ulcer; experiment: Inhibitory effect on indomethacin-induced gastric ulcer; assay type: in vivo, SD rats; conditions: 30 mg/kg oral, 30 min before indomethacin
Experimental: Inhibitory effect on indomethacin-induced gastric ulcer
Male SD rats of 7-week age were fasted for 24 hours, with a fast of water beginning in early morning of the day when the experiments were performed. The rats were classified into groups each consisting of eight rats, such that all the groups have substantially the same average weight. Before giving indomethacine to the rats, the compounds of the Examples indicated in TABLE 5 were orally administered as specimen drugs to the rats, with a dose of 30 mg/kg. Thirty minutes later, indomethacin was orally administered to each specimen rat, with a dose of 25 mg/kg (1 mL/rat). Seven hours later, the specimen rats were sacrificed by ether, and the gastric mucosa of each rat was semi-fixed with 2% formalin. The longitudinal length of the damaged area of gastric mucosa was measured, and the anti-ulcer percent values of the individual specimen drugs were calculated on the basis of the sum of the measured length values of each group of specimen rats, in the same manner as in EXAMPLE 19.

[2] = test system: acetic acid-induced gastric ulcer; experiment: Healing effect on acetic acid-induced gastric ulcer of rat; assay type: in vivo, Donryu rat; conditions: 25 mg/kg oral two times a day, 10 days
Experimental: Healing effect on acetic acid-induced gastric ulcer of rat
A male Donryu rat of 7-week age was subjected to abdominal incision to expose the stomach, with pentobarbital used as an anesthesia. Using a metal ring having an inside diameter of 10 mm, 200 μL of glacial acetic acid was applied, for 60 seconds, with a serosa-side of a boundary area between the antrum and the corps. The abdomen of the specimen rat subjected to the glacial acetic acid was closed by an operation, and the rat was then fed in a normal way. The compound prepared in Example 2, that is, 2-(2-dimethylaminobenzylsulfinyl)-5,5-dimethylimidazoline-4-thione was used as the specimen drug. This compound was orally administered to the specimen rat two times a day (at 9:00 a.m. and 5:00 p.m.), each time with a dose of 25 mg/kg, beginning on the day following the day on which the glacial acetic acid was applied to the rat. The oral administration continued for 10 consecutive days, with a total of 20 administrations. On the day following the last day of the administration, the specimen rat was sacrificed by ether, and the ulcer portion of the rat was semi-fixed with formalin. The surface area of the ulcer portion was measured. The healing percent (%) calculated on the basis of the measured surface area was 40.8%.

[3] = Single-dose toxicity study; assay type: in vivo; conditions: mouse, in vivo, oral, male ddY mice, two weeks
ddY mice = experiment: Single-dose toxicity study; assay type: in vivo; conditions: oral, male ddY mice, two weeks
[4] = test system: water-immersion restraint stress-induced gastric ulcer; experiment: Inhibitory effect on water-immersion restraint stress-induced gastric ulcer; assay type: in vivo, SD rats; conditions: 10 mg/kg oral, 30 min before stress
Experimental: Inhibitory effect on water-immersion restraint stress-induced gastric ulcer
Male 7-week SD rats were fasted for 24 hours, with a fast of water beginning in early morning of the day when the experiments were performed. The rats were classified into groups each consisting of five rats, such that all the groups have substantially the same average weight. Thirty minutes before giving a stress to the rats, the compounds of the Examples indicated in TABLE 3 were orally administered as specimen drugs to the rats, with a dose of 10 mg/kg. The rats were then kept in stress cages, and were given a stress by immersing the cages in a water bath kept at a substantially constant temperature of 23°±1° C., such that the water level was at the height of the xiphoid of the rats. Seven hours later, the specimen rats were sacrificed by ether, and the gastric mucosa of each rat was semi-fixed with 2% formaline. The longitudinal length of the damaged area of the gastric mucosa was measured. A sum of the measured length values of the rats of each group was calculated as an ulcer index. An anti-ulcer or ulcer inhibitory percent (%) was calculated as {1-(ulcer index of each group of specimen rats)/(ulcer index of non-specimen group)}×100.

[5] = test system: gastric acid secretion in a pylorus ligated rat; experiment: Inhibitory effect on the gastric acid secretion in a pylorus ligated rat; assay type: in vivo, SD rats; conditions: 10 mg/kg intraduodenal; 4 hours
Experimental: Inhibitory effect on the gastric acid secretion in a pylorus ligated rat Male 7-week SD rats were fasted for 24 hours, with a fast of water beginning in early morning of the day when the experiments were performed. The rats were classified into groups each consisting of five rats, such that all the groups have substantially the same average weight. The experiments were performed according to a method of Shay et. al. (Shay, H. et. al., Gastroenterology, Vol. 5, pp43, 1945). Described more specifically, each of the rats was subjected to a light anesthesia by ether, and the hair of the abdomen of each rat was clipped. Then, the abdomen was incised over a length of 1.5 cm along the center line downwards from a portion 1 cm below the xiphoid of the rat, and the stomach was taken out of the body. A portion connecting the pylorus and the duodenum was ligated by suturing thread. […] After the administration, the skin of the abdominal muscle and abdomen was sutured. The rats were kept in cages and fasted for 4 hours with a fast of water. Then, the rats were sacrificed by ether, and the stomach of each rat was removed. The gastric content was obtained from a small hole formed through the stomach of each rat and was collected in a test tube. […] An amount of supernatant was measured as a volume of gastric acid, and a total acidity of the gastric acid was also measured. A volume of gastric acid inhibitory percent (%) and a total acidity inhibitory percent (%) were calculated in the same manner as the ulcer inhibitory percent was calculated. The total acidity was obtained as a product of the amount of gastric acid secreted for 4 hours and the acidity per 1 mL of the gastric acid which was subjected to neutralization titration by an aqueous solution of 0.01N sodium hydroxide.

[6] = test system: hydrochloric acid-ethanol-induced gastric ulcer; experiment: Inhibitory effect on hydrochloric acid-ethanol-induced gastric ulcer; assay type: in vivo, SD rats; conditions: 30 mg/kg oral, 30 min before hydrochloric acid-ethanol
Experimental: Inhibitory effect on hydrochloric acid-ethanol-induced gastric ulcer
Male SD rats of 7-week age were fasted for 24 hours, with a fast of water beginning in early morning of the day when the experiments were performed. The rats were classified into groups each consisting of five rats, such that all the groups have substantially the same average weight. Before giving hydrochloric acid-ethanol to the rats, the compounds of the Examples indicated in TABLE 4 were orally administered as specimen drugs to the rats, with a dose of 30 mg/kg. Thirty minutes later, 1 mL of 98% ethanol containing 200 mM of hydrochloric acid was orally administered to each specimen rat. One hour later, the specimen rats were sacrificed by ether, and the gastric mucosa of each rat was semi-fixed with 2% formalin. The longitudinal length of the damaged area of the gastric mucosa was measured, and the anti-ulcer percent values of the individual specimen drugs were calculated on the basis of the sum of the measured length values of each group of the specimen rats, in the same manner as in Example 19.

Which results are given for `CN(C)c1ccccc1C[S+]([O-])C1=NC(C)(C)C(=S)N1` (stereo not drawn) [Example 2, 2-(2-dimethylaminobenzylsulfinyl)-5,5-dimethylimidazolin-4-thione]?
Healing days (wound in rat; 50 mg/kg oral once a day): 13.8 ± 0.39 days; Healing Index (wound in rat; 50 mg/kg oral once a day): 153.0 ± 13.2; Healing days (wound in rat; 100 mg/kg oral once a day): 14.6 ± 0.44 days; Healing Index (wound in rat; 100 mg/kg oral once a day): 146.7 ± 12.4; Inhibitory Percent (ulcer) [1]: 100%; healing percent (ulcer surface area) [2]: 40.8%; LD50 at 336 h [3]: 952 mg/kg; LD50 95% confidence limits (ddY mice): 791 to 1138 mg/kg

Which results are given for `CCN(C)c1ccccc1C[S+]([O-])C1=NC(C)(C)C(=S)N1` (stereo not drawn) [Example 15, 2-(2-N-ethyl-N-methylaminobenzylsulfinyl)-5,5-dimethylimidazolin-4-thione]?
Inhibitory Percent (ulcer) [1]: 99.2%; Inhibitory Percent (ulcer) [4]: 99.9%; Total acidity Inhibitory percent [5]: 91.3%; Volume of Gastric acid Inhibitory percent [5]: 60.1%; Inhibitory Percent (ulcer) [6]: 97.4%

With `CC1(C)N=C([S+]([O-])Cc2cccc3cccnc23)NC1=S` (stereo not drawn) [Example 4, 2-(8-quinolinylmethylsulfinyl)-5,5-dimethylimidazolin-4-thione] as the molecule, how does the “Inhibitory Percent (ulcer)” value [6] read?
Its value is 90.3%.

With `CCC1(C)N=C([S+]([O-])Cc2ccccc2N(C)C)NC1=S` (stereo not drawn) [Example 16, 2-(2-dimethylaminobenzylsulfinyl)-5-ethyl-5-methylimidazolin-4-thione] as the molecule, how does the “Inhibitory Percent (ulcer)” value [1] read?
The value was 97.2%.

What about the “Total acidity Inhibitory percent” value [5] of the same molecule?
The value was 77.4%.

What about the “Volume of Gastric acid Inhibitory percent” value [5] of the same molecule?
The value was 41.6%.

What about the “Inhibitory Percent (ulcer)” value [6] of the same molecule?
Its value is 98.6%.
